Patent publication US20260167692A1, “POLYPEPTIDES AND RELATED SUBSTANCES AGAINST HAIR LOSS AND DERMATITIS, AND USES THEREOF” (SHENZHEN INSTITUTES OF ADVANCED TECHNOLOGY, priority 2023, published 2026)
Where two headings read alike, the source gives them in different places. Where a SMILES comes first, the peptide text is derived from it. Where no end group is shown, it is not given here.

Experiments:
[1] = system: human primary dermal papilla cells; experiment: Cortisol-induced psychological stress hair loss cell model; assay type: cell-based; details: 1 μM cortisol, 24 hours
Experimental: A fibroblast medium was used as a medium. […] Expression levels of cellular molecular markers (including 5α-dehydrogenase, GR, AR, CD200, IL-6, BCL2, and BAX) were detected after 24 hours.

GPR158 receptor = target: T1, GPR158 receptor (Homo sapiens, UniProt Q5T848); experiment: Binding of Cy5-labeled Ocn49/Ocn19 to HeLa cells highly expressing GPR158; assay type: cell-based; details: Cy5-labeled polypeptide incubated with GPR158-HeLa cells at 4° C., washed with PBS, FIG. 7
T1 construct: expressed in transfected cells; host or cells: HeLa cell line highly expressing GPR158 (GPR158-HeLa)
T1 sequence (Q5T848 24-1215): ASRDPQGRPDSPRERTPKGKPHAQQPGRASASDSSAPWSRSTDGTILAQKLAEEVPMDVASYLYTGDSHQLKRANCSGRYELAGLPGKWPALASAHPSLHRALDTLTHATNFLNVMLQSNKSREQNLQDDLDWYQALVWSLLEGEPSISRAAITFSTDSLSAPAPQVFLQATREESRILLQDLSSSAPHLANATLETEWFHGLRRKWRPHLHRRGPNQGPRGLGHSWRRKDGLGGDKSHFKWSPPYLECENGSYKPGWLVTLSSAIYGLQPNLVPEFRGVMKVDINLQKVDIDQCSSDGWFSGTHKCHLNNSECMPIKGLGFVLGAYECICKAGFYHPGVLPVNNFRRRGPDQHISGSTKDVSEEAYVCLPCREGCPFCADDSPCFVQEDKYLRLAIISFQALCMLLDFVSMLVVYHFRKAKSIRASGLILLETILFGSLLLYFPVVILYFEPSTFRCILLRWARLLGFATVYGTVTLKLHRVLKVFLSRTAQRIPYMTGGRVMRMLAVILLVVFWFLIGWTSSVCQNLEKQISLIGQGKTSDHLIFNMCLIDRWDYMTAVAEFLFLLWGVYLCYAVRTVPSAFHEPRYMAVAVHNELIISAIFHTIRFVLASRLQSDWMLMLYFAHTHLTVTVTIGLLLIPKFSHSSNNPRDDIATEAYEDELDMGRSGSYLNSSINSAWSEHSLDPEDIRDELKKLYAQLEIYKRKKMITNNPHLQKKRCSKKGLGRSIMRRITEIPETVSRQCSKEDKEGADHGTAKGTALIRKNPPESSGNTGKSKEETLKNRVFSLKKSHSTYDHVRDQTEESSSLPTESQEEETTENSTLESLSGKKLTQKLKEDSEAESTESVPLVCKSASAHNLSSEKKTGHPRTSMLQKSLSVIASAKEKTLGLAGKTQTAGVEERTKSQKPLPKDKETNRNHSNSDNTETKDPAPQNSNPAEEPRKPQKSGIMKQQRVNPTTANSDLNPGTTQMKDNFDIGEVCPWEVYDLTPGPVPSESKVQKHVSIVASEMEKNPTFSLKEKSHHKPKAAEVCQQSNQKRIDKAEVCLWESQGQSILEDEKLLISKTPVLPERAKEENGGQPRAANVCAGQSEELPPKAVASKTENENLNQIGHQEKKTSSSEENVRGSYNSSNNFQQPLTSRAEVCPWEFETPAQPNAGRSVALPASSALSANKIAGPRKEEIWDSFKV
Experimental: The polypeptide prepared in Example 1 was employed in this example, and a binding condition was observed via in vitro culture of the polypeptide with a Hela cell line highly expressing a GPR158 receptor.
(§1) A specific method involved that Cy5-labeled full-length human osteocalcin Ocn49, truncated human osteocalcin Ocn19 (SEQ ID NO.1), and HeLa cells highly expressing GPR158 were incubated at 4° C., and cells were subsequently washed with PBS. Polypeptides incapable of binding to the cells were considered as non-specific ligands, while polypeptides capable of binding to the cells were considered as specifically binding ligands. An interaction between the polypeptides and the receptor was verified accordingly.

[2] = system: brains, ovaries, uteruses and adrenal glands of female mice; experiment: In vivo targeting of polypeptide-ICG/Cy5 probe in female mice (small animal imaging); parameters: species or system mouse; details: adult female mice, tail vein injection 100 μL of ICG- or Cy5-labeled polypeptide, imaging after 24 hours, vs control group
Experimental: Adult female mice were intravenously injected via tail veins with the following: the polypeptide-ICG probe solution prepared in Example 2/Cy5-labeled polypeptide, an ICG solution (2 mM)/control polypeptide (a scrambled, irrelevant polypeptide), and a phosphate buffered saline (PBS). Each mouse received an injection volume of 100 μL. After 24 hours, detection was performed using a small animal imaging instrument.

[3] = system: brain, gonad and adrenal gland tissues of male mice; experiment: In vivo targeting of Cy5-labeled polypeptide in male mice (small animal imaging); parameters: species or system mouse; details: adult male mice, tail vein injection 100 μL of Cy5-labeled polypeptide, imaging after 24 hours, vs control group
Experimental: Adult male mice were intravenously injected via tail veins with the following: the Cy5-labeled polypeptide prepared in Example 2, a control polypeptide (a scrambled, irrelevant polypeptide), and a PBS. Each mouse received an injection volume of 100 μL. After 24 hours, detection was performed using a small animal imaging instrument.

male C57BL/6 mice = experiment: Androgenetic (seborrheic) hair loss mouse model (DHT); assay type: in vivo; details: 28 days
Experimental: 7-week-old male C57BL/6 mice were treated with application of DHT (a modeling and experimental cycle of 28 days).
Hair at a telogen phase on 2×2 cm areas of dorsa was removed, and the areas were depilated using a hair removal cream. A DHT solution (0.2%, w/v) was prepared in an ethanol solution (50%, v/v). Mice received topical application of the DHT solution (0.1 mL/cm^2) to the depilated areas, once a day, for 28 consecutive days. Mice in the other group received the polypeptide via oral gavage at a concentration of 0.5 mg/kg/day while applied with the DHT daily.

[4] = system: human primary dermal papilla cells; details: 10 nM DHT, 24 hours
Experimental: A fibroblast medium was used as a medium.
24 hours after serum-starved cells were removed, human primary dermal papilla cells were treated with a high level of androgen by adding 10 nM DHT to a culture medium. Expression levels of cellular molecular markers (including 5α-dehydrogenase, AR, CD200, IL-6, BCL2, BAX, and FABP3) were detected after 24 hours. Homologous polypeptides from different species (the polypeptides from Example 7) were concurrently added for co-culture, and the expression levels of the cellular molecular markers were detected after 24 hours.

[5] = target: T2, human GPR158 receptor (on HeLa cells highly expressing a GPR158 receptor) (human, UniProt Q5T848 24-1215); experiment: Cy5-labelled polypeptide incubated at 4 C with HeLa cells highly expressing GPR158, washed with PBS, fluorescence imaging
T2 construct: whole, on cells; also called GPR158-HeLa cells; human GPR158 receptor cells
T2 sequence (looked up): T1 sequence (Q5T848 24-1215)
Experimental: as §1

[6] = topical DHT 0.2% w/v, 0.1 mL/cm^2 once a day

## C[C@]12CCC(=O)C=C1CC[C@@H]1[C@@H]2[C@@H](O)C[C@@]2(C)[C@H]1CC[C@]2(O)C(=O)CO [cortisol]
[1]
  apoptosis of hair follicle cells (Caspase-3, BCL2, BAX): increased
  expression level of hair follicle regression marker MMP-9: increased
  expression levels of STIP1 and inflammatory factors (TGF-β1 and IL-6): increased
  expression levels of glucocorticoid receptor (GR), androgen receptor (AR), and 5α-reductase: significantly increased
  expression levels of hair growth marker GAS6 and hair follicle stem cell markers CD200 and CD133: decreased

## Ocn49: full-length human osteocalcin (YLYQWLGAPVPYPDPLEPRREVCELNPDCDELADHIGFQEAYRRFYGPV)
GPR158 receptor
  binding to the GPR158 receptor: capable of binding to the GPR158 receptor
  internalization of the GPR158 receptor: induces internalization of the GPR158 receptor

## CC(C)C[C@H](NC(=O)[C@@H](N)Cc1ccc(O)cc1)C(=O)NCC(=O)N[C@@H](C)C(=O)N[C@@H](CO)C(=O)N[C@H](C(=O)N1CCC[C@H]1C(=O)N[C@@H](CO)C(=O)N1CCC[C@H]1C(=O)N[C@@H](CC(=O)O)C(=O)N1CCC[C@H]1C(=O)N[C@@H](CC(C)C)C(=O)N[C@@H](CCC(=O)O)C(=O)N1CCC[C@H]1C(=O)N[C@H](C(=O)O)[C@@H](C)O)C(C)C [mO15, YLGASVPSPDPLEPT] (H-YLGASVPSPDPLEPT-OH; N-terminus and C-terminus assumed)
[2]
  fluorescence signals in brain tissues (brain entry): enters the brains
  localization and binding in hypothalamus, ovary and uterus, and adrenal gland tissues (fluorescence signals): specific localization and binding capabilities
[3]
  fluorescence signals in brain tissues (brain entry): enters the brains
  localization and binding in brain, gonad (testis, epididymis) and adrenal gland tissues (fluorescence signals): specific localization and binding capabilities

## C[C@]12CCC(=O)C[C@@H]1CC[C@@H]1[C@@H]2CC[C@]2(C)[C@@H](O)CC[C@@H]12 [DHT, dihydrotestosterone]
Male C57BL/6 mice; topical DHT 0.2% w/v once a day, FIG. 13
  expression level of AR in cervicodorsal skins (immunofluorescence): significantly increased
Male C57BL/6 mice; topical DHT 0.2% w/v once a day, FIG. 14
  genes related to lipases, adipocyte differentiation, and lipoproteins in cervicodorsal skins: significantly increased
Male C57BL/6 mice; [6]
  skin expression level of β-catenin gene: decrease
  skin expression levels of TGF-β, DKK1, IL-6, and AR genes: increase
[4]
  apoptosis of hair follicle cells (Caspase-3, BCL2, BAX): increased
  expression level of hair follicle regression marker MMP-9: increased
  expression level of hair follicle stem cell marker CD200: decreased
  expression levels of androgen receptor (AR), 5α-reductase, androgen synthesis-related enzymes (3βHSD and 17βHSD3): significantly increased
  expression levels of fatty acid-binding protein FABP3 and adipogenic differentiation factor PPARγ: increased
  expression levels of inflammatory factors (TGF-β, TNF-α, and IL-6): increased

## YLYQWLGAPVPYPDPLEPR (listed as Homo sapiens) [Ocn19, human osteocalcin-derived peptide (truncated human osteocalcin)]
GPR158 receptor
  binding to the GPR158 receptor: capable of binding to the GPR158 receptor
  internalization of the GPR158 receptor: induces internalization of the GPR158 receptor

B1: full-length human osteocalcin Ocn49 (ligand, UniProt P02818 52-100, looked up)
chain: YLYQWLGAPVPYPDPLEPRREVCELNPDCDELADHIGFQEAYRRFYGPV
modifications: ends and bridges not checked; also: Cy5 label, site not given here
notes: mature; also called human Ocn49
[5]
  binding result: binds

B2: truncated human osteocalcin Ocn19 (human osteocalcin-derived peptide) (peptide)
peptide: YLYQWLGAPVPYPDPLEPR
modifications: not fully specified
notes: also called human Ocn19
[5]
  binding result: binds
